From paper PMC5522529, “Mechanisms of Paradoxical Activation of AMPK by the Kinase Inhibitors SU6656 and Sorafenib” (Cell Chemical Biology, 2017)

How the values were obtained:
Assay type in all cases: cell-based
AMPK-α1 (WT) = target: T1, AMPK-α1 (WT) (Homo sapiens, UniProt Q13131); assay: AMPK activity of FLAG-tagged AMPK-α1 (WT) expressed in HEK293 cells; settings: WT FLAG-α1; A769662 300 μM, berberine 300 μM, phenformin 10 mM, troglitazone 100 μM, oligomycin 1 μM, SU6656 100 μM, 1 hr
T1 construct: we expressed FLAG-tagged full-length AMPK-α1 either as the WT or the AT mutant; expressed in transfected cells; host or cells: HEK293
Description: (§1) (B) Western blotting of the same preparations as in (A). […] (D) Allosteric activation of WT and mutant α1β1γ1 complexes by MT 63-78, curve fitting as for (C). […] (E) Allosteric activation of WT and mutant α1β1γ1 complexes by AMP. Data were fitted to the equation for activation/inactivation by AMP ([Gowans et al., 2013]). […] (F) Activation of WT and AA mutant by various AMPK activators in HEK293 cells. […] FLAG-tagged complexes were isolated by immunoprecipitation and AMPK activity determined (mean ± SEM, n = 2).
(§2) We next expressed the FLAG-tagged WT or AA mutant of AMPK-α1 by transient transfection in HEK293 cells, treated with various agents, and measured AMPK activity in anti-FLAG immunoprecipitates. In Figure 4F, the results are expressed as absolute activities and are accompanied by blots showing Thr172 phosphorylation.
The α1-KD was precipitated using anti-FLAG and endogenous AMPK complexes using anti-α1 antibody, and activity determined. […] (B) Western blots (n = 2) using the indicated antibodies; samples from experiment in (A). (C) DNAs encoding FLAG-tagged AMPK-α1 (WT or AT mutant) were expressed by transient transfection in HEK293 cells, the cells treated with increasing concentrations of SU6656 for 1 hr, AMPK complexes precipitated with anti-FLAG, and activity measured.

AMPK-α1 AA mutant = target: T2, AMPK-α1 AA mutant (Homo sapiens, UniProt Q13131, K40A/K42A); assay: AMPK activity of FLAG-tagged AMPK-α1 K40A/K42A (AA) mutant expressed in HEK293 cells; settings: AA mutant FLAG-α1; same concentrations, 1 hr
T2 construct: Plasmid encoding full-length human AMPK-α1; expressed in transfected cells; host or cells: HEK293
Description: as §1, §2

[1] = target: T3, endogenous full-length α1 complexes (Homo sapiens, UniProt Q13131); assay: Activity of endogenous full-length α1 complexes in HEK293 cells; settings: 1 hr
T3 construct: endogenous in cells
Description: (§3) We next expressed an FLAG-tagged α1 kinase domain (α1-KD, residues 1–312) by transient transfection in HEK293 cells, treated the cells with various AMPK activators, and then assayed both the expressed α1-KD (precipitated using anti-FLAG) and endogenous full-length α1 complexes (precipitated using anti-α1 antibodies recognizing an epitope outside the α1-KD). […] This was also observed with A23187, as expected since this ionophore increases intracellular Ca^2+ and activates the alternate upstream kinase CaMKK2.
(§4) The α1-KD was precipitated using anti-FLAG and endogenous AMPK complexes using anti-α1 antibody, and activity determined. Results (mean ± SD, n = 2) are expressed relative to activities in DMSO controls. (B) Western blots (n = 2) using the indicated antibodies; samples from experiment in (A). (C) DNAs encoding FLAG-tagged AMPK-α1 (WT or AT mutant) were expressed by transient transfection in HEK293 cells, the cells treated with increasing concentrations of SU6656 for 1 hr, AMPK complexes precipitated with anti-FLAG, and activity measured. Results (mean ± SD, n = 3) are expressed relative to the DMSO control. […] Results (mean ± SD, n = 3) are expressed relative to the DMSO control. **p < 0.01, ***p < 0.001, ****p < 0.0001, ^†††p < 0.001; ns, not significant.

[2] = target: T4, α1 kinase domain (α1-KD, residues 1–312) (Homo sapiens, UniProt Q13131); assay: Activity of FLAG-tagged α1 kinase domain expressed in HEK293 cells; settings: 1 hr
T4 construct: amplifying residues 1-312 with an N-terminal FLAG-tag; expressed in transfected cells; host or cells: HEK293 (transient transfection, pcDNA5 FRT)
Description: as §3, §4
A plasmid encoding the AMPK-α2 kinase domain (α2-KD) was made by amplifying residues 1-310 with 5' BamH1 and 3' Xho1 sites, the resulting PCR product was cloned into pGEX6P2. Point mutations were generated using the Quikchange II site-directed mutagenesis kit (Stratagene) and confirmed by DNA sequencing.

T1 sequence (Q13131 whole entry): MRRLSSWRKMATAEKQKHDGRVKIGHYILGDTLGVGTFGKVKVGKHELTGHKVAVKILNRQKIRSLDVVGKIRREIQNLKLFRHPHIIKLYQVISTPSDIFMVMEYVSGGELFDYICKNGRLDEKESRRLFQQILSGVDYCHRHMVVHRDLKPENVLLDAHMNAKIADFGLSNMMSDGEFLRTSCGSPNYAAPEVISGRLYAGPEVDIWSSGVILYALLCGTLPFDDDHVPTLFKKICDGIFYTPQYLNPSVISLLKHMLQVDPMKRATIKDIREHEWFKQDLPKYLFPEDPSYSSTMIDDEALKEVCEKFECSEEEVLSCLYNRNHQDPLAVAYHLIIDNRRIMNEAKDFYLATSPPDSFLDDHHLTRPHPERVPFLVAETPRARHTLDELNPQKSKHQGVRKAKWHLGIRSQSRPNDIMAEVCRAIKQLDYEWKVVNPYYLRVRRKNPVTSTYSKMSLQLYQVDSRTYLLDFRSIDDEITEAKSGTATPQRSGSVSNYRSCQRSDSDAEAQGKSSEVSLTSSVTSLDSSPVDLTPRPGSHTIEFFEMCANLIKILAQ
T1 sequence (P54619 whole entry partner): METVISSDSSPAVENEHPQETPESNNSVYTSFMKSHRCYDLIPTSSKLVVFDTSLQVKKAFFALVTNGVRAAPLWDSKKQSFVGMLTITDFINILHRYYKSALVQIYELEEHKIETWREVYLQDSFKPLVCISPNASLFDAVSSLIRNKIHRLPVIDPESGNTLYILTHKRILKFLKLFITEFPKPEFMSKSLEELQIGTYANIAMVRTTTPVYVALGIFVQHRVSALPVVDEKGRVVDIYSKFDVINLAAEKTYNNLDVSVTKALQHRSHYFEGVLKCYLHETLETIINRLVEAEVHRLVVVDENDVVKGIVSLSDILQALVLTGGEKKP
T2 sequence (Q13131 whole entry K40A/K42A): as the sequence (Q13131 whole entry) above, with K40A, K42A counted along it
T2 sequence (P54619 whole entry partner): as the sequence (P54619 whole entry partner) above
T4 sequence (Q13131 1-312): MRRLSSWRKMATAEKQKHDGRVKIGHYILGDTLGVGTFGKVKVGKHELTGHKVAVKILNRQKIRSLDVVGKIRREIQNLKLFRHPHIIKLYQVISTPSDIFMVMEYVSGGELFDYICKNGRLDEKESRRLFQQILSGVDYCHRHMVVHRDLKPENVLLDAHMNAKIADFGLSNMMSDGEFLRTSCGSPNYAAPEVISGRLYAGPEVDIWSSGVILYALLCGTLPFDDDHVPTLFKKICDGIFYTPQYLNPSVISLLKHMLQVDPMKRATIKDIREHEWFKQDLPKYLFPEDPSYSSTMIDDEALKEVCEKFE
T3 sequence (Q13131 whole entry): as the sequence (Q13131 whole entry) above
T3 sequence (P54619 whole entry partner): as the sequence (P54619 whole entry partner) above

| kinase activity / Thr172 phosphorylation [1] | SMILES | AMPK activity and Thr172 phosphorylation (AMPK-α1 (WT)) | effect of AA mutation on AMPK activation (AMPK-α1 AA mutant) | kinase activity / Thr172 phosphorylation [2] |
| --- | --- | --- | --- | --- |
| – | CC[C@H]1/C=C/C=C/C[C@@H](C)[C@H](O)[C@@](C)(O)C(=O)[C@@H](C)[C@H](O)[C@@H](C)C(=O)[C@@H](C)[C@H](O)[C@@H](C)/C=C/C(=O)O[C@@H]2[C@H](C)[C@H](CC1)O[C@]1(CC[C@H](C)[C@H](C[C@@H](C)O)O1)[C@H]2C [oligomycin] | activated AMPK and caused Thr172 phosphorylation | abolished | – |
| doing this with the endogenous complexes | Cc1c(C)c2c(c(C)c1O)CCC(C)(COc1ccc(CC3SC(=O)NC3=O)cc1)O2 (stereo not drawn) [troglitazone] | activated AMPK and caused Thr172 phosphorylation | abolished | failed to activate or cause Thr172 phosphorylation |
